From publication PMC4893612 (Scientific Reports, 2016)
Where two headings read alike, the source gives them in different places.

Key:
UCHL5 [1] = biological target: T1, UCHL5 (Homo sapiens, UniProt Q9Y5K5); assay: SPR binding to recombinant UCHL5, NTA chip; conditions: protein from ProSpec, read-out: UCHL5(P) KD
T1 sequence (Q9Y5K5 1-329): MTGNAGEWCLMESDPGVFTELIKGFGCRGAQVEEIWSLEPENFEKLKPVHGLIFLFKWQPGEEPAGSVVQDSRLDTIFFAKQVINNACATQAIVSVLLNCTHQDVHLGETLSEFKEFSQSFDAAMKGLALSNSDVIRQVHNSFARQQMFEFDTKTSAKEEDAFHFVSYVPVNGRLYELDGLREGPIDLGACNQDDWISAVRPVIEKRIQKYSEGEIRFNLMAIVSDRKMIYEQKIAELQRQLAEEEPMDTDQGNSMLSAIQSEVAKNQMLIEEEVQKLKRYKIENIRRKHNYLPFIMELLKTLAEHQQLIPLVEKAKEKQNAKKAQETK
Description: A BIACORE T200 was used for characterization of the interaction between compounds and USP14, UCHL5 and 26S proteasome. The standard BIACORE protocols were used for NTA chip (Ni/His-tag immobilization) and CM7 chip for compound interaction studies with slight modification described below. The x6 his-tagged USP14 and UCHL5 proteins were coupled to a Series S NTA BIACORE sensor chip in the BIACORE T200 using the his-tags for adherence of the proteins to the surface and an amine coupling procedure for covalent attachment to the chip surface. NTA chip was cleaned using three 500 μM EDTA injections followed by an injection of 500 μM Ni^2+ and activation of the chip surface with EDC/NHS injection according to BIACORE standard methods. Each chip has four separate areas, which were handled separately during the immobilization procedure. Area 1 was used as blank reference surface, area 2–4 was coupled with investigated recombinant proteins or complexes. Proteins were diluted in running buffer (10 mM HEPES, 150 mM NaCl, 0,005% Tween 20) to typically 10 μg/ml before injection(1 mL) over the prepared surfaces. […] The immobilization procedure was followed by injections of compound concentration series of VLX1570. […] Rmax and KD were calculated using Langmuir binding isotherms as provided in the Biacore software.

USP14 [2] = biological target: T2, USP14 (Homo sapiens, UniProt P54578); assay: SPR binding to recombinant USP14, NTA chip
Description: A BIACORE T200 was used for characterization of the interaction between compounds and USP14, UCHL5 and 26S proteasome. The standard BIACORE protocols were used for NTA chip (Ni/His-tag immobilization) and CM7 chip for compound interaction studies with slight modification described below. The x6 his-tagged USP14 and UCHL5 proteins were coupled to a Series S NTA BIACORE sensor chip in the BIACORE T200 using the his-tags for adherence of the proteins to the surface and an amine coupling procedure for covalent attachment to the chip surface. NTA chip was cleaned using three 500 μM EDTA injections followed by an injection of 500 μM Ni^2+ and activation of the chip surface with EDC/NHS injection according to BIACORE standard methods. Each chip has four separate areas, which were handled separately during the immobilization procedure. Area 1 was used as blank reference surface, area 2–4 was coupled with investigated recombinant proteins or complexes. Proteins were diluted in running buffer (10 mM HEPES, 150 mM NaCl, 0,005% Tween 20) to typically 10 μg/ml before injection(1 mL) over the prepared surfaces. […] The immobilization procedure was followed by injections of compound concentration series of VLX1570. Concentration series were set up with ×3 and ×2 dilution series ending with the highest concentration 200 μM for the consecutive measurements of changes of refractive index. Compounds were kept in stock concentrations of 10 mM in DMSO and diluted in running buffer down to the test concentration. Rmax and KD were calculated using Langmuir binding isotherms as provided in the Biacore software.

USP14 [3] = biological target: T2, USP14; assay: HA-Ub-VS active-site labeling of purified 19S, USP14; format: biochemical; set-up: purchased Boston Biochem E-366; conditions: purified 19S RP; 2.5 μM
Procedure: (§1) Cell extract proteins were resolved by Tris-Acetate PAGE gels (Invitrogen, Carlsbad, CA) and transferred onto a polyvinylidene difluoride (PVDF) membrane for western blotting. For Ub-VS labeling, we lysed cell pellets from control or treated cells with buffer (50 mM HEPES pH 7.4, 250 mM sucrose, 10 mM MgCl2, 2 mM ATP, 1 mM DTT and 1%NP-40) on ice for 30 min and removed debris by centrifugation. We labeled 25 μg of protein with 1 μM Ub-VS for 30 min at 37 °C. We resolved samples by SDS-PAGE and performed immunoblotting. For HA-Ub-VS labeling, we pretreated purified 19S (5 nM) with DMSO or 2.5, 5, 10, 15 or 25μM 1570 for 10 min at room temperature, which followed with labeling with 1 μM HA-Ub-VS for 30 min at 37 °C and immunoblotting.

MM cells = assay: Immunoblotting of polyubiquitinated proteins in MM cells; format: cell-based, human; conditions: 0.5 μM, 6 or 18 h
Procedure: as §1

proteasome DUB activity = tested on: proteasome DUB activity; set-up: method as in PMID 25854145; conditions: competitive inhibitor; read-out: IC50, inhibition of proteasome DUB activity in vitro; cited from earlier work
UCHL5 [4] = biological target: T1, UCHL5; assay: Ub-VS labeling of lysates of exposed OPM-2 cells, UCHL5; format: cell-based; set-up: endogenous in cells; host or cells: OPM-2 multiple myeloma cells; conditions: 0.5 μM, 3 hours
Procedure: as §1

[5] = tested on: 26S proteasome and immunoproteasome; assay: Proteasome and immunoproteasome proteolytic activity in OPM-2 cells; format: cell-based, human; conditions: 0.5 μM, 3 hours
RPMI8226 = assay: MTT antiproliferative assay, RPMI8226; format: cell-based; conditions: Homo sapiens, RPMI-8226, 72 hours
Procedure: (§2) Cell viability was monitored by the MTT (3-(4,5-dimethylthiazol-2-yl)-2,5-diphenyltetrazolium bromide) assay. For the MTT assay, cells were suspended at 5 × 10^5 cells/ml, and 100 μl aliquots were dispended into 96-well microtiter plates and exposed to drugs as described using DMSO control. At the end of incubations, 10 μl of a stock solution of 5 mg/ml MTT (3-(4,5-dimethylthiazol-2-yl)-2,5-diphenyltetrazolium bromide), was added into each well, and the plates were incubated 4 hours at 37 °C. Formazan crystals were dissolved with 100 μl of 10% SDS/10 mM HCl solution overnight at 37 °C. Since MTT assays are affected by mitochondrial activity, and since OXPHOS is affected by VLX1570 (unpublished observation), we used the acid phosphatase method[49] to determine cell viability in some experiments. After washing twice with PBS, cells were lysed in 100 μl of 0.1 M sodium acetate, 0,1% Triton X-100, p-nitrophenylphosphate (Pierce Biotechnology Inc, Rockford, IL) and incubated for 90 min at 37 °C. At the end of the incubation, 10 μl NaOH was added to each well and A405 was determined.

KMS-11 = assay: MTT antiproliferative assay, KMS-11; format: cell-based; conditions: Homo sapiens, 72 hours
Procedure: as §2

T2 sequence (P54578 whole entry): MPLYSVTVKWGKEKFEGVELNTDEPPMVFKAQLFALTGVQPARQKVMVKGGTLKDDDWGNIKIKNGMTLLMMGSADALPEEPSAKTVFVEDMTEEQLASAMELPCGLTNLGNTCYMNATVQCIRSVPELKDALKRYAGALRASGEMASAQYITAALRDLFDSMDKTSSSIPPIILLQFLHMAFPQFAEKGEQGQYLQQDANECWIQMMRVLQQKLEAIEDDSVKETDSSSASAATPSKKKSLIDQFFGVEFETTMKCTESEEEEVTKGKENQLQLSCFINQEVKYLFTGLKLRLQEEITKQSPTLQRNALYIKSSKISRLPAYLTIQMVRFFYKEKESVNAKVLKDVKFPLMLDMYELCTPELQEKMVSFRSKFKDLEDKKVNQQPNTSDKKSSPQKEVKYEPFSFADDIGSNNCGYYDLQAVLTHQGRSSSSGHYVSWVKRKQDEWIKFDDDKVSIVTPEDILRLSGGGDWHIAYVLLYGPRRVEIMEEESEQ

## C=CC(=O)N1CC/C(=C\c2ccc(F)c([N+](=O)[O-])c2)C(=O)/C(=C/c2ccc(F)c([N+](=O)[O-])c2)C1 [VLX1570]
UCHL5 [1]
  Kd: 14 µM
USP14 [2]; NTA chip, protein from Karolinska Institute Protein Science Facility, read-out: USP14(K) KD
  Kd: 18 µM
USP14 [2]; NTA chip, protein from ProSpec, read-out: USP14(P) KD
  Kd: 8.1 µM
USP14 [2]; NTA chip, protein from Ubiquigent, read-out: USP14(U) KD
  Kd: 1.5 µM
USP14 [2]; two different sources of recombinant protein, Ni2+-histidine immobilisation, read-out: dissociation constant (KD) for binding to recombinant USP14
  Kd: 1.5 to 18 µM
USP14 [3]
  inhibition of USP14 activity (Ub-VS labeling): strongly inhibited
MM cells
  accumulation of polyubiquitinated proteins: polyubiquitinated proteins accumulated
Proteasome DUB activity
  IC50: ~10 µM
UCHL5 [4]
  UCHL5 inhibition in exposed cells: weak in comparison
[5]
  chymotryptic, tryptic and caspase-like activity of 26S proteasome and chymotryptic activity of immunoproteasome: no change
RPMI8226
  IC50: 0.074 ± 0.002 µM
KMS-11
  IC50: 0.043 ± 0.002 µM
